From US20230277698A1, “SILICON-CONTAINING LIGAND COMPOUNDS” (Technische Universität München, priority 2020, published 2023)

Assays:
[1] = system: LNCaP tumor-bearing CB17-SCID mice; assay: Biodistribution studies 24 h p.i.; type: in vivo; conditions: 177Lu-labelled, mean±SD, n=4-5; for biodistribution: tumor: LNCaP xenograft; for biodistribution: blood: i.v. tail vein
Procedure: All animal experiments were conducted in accordance with general animal welfare regulations in Germany (German animal protection act, as amended on 18 May 2018, Art. 141 G v. 29.3.2017|626, approval no. 55.2-1-54-2532-71-13) and the institutional guidelines for the care and use of animals. To establish tumor xenografts, LNCaP cells (approx. 10^7 cells) were suspended in 200 μL of a 1:1 mixture (v/v) of DMEM F-12 and Matrigel (BD Biosciences, Germany), and inoculated subcutaneously onto the right shoulder of 6-8 weeks old CB17-SCID mice (Charles River, Sulzfeld, Germany). Mice were used for experiments when tumors had grown to a diameter of 5-10 mm (3-6 weeks after inoculation).
Approximately 5-10 MBq (0.1-0.2 nmol) of the radioactive-labelled PSMA inhibitors were injected into the tail vein of LNCaP tumor-bearing male CB-17 SCID mice and sacrificed after 24 h post injection. Selected organs were removed, weighted and measured in a γ-counter.
FIG. 10 and the following table show the biodistribution data 24 h p.i. of ^177Lu-labeled compounds in LNCaP tumor-bearing CB17-SCID mice. Data are expressed as mean±SD (n=4-5).

PSMA = molecular target: T1, PSMA (Homo sapiens, UniProt Q04609); assay: PSMA affinity (IC50), competition with ([125I]I-BA)KuE on LNCaP cells; conditions: natLu complexes; LNCaP cells 150000 cells/well, ([125I]I-BA)KuE c=0.2 nM, 1 h, 4 °C, HBSS+1% BSA; mean±SD, n=3; read-out: IC50 (binding affinity to PSMA)
T1 construct: PSMA-positive LNCAP cells (300265; Cell Lines Service, Eppelheim, Germany); host or cells: LNCaP cells
Procedure: PSMA-positive LNCAP cells (300265; Cell Lines Service, Eppelheim, Germany) were cultivated in Dulbecco modified Eagle medium/Nutrition Mixture F-12 with Glutamax (1:1) (DMEM-F12, Biochrom, Berlin, Germany) supplemented with fetal bovine serum (10%, FBS Zellkultur, Berlin, Germany) and kept at 37° C. in a humidified CO2 atmosphere (5%). A mixture of trypsin and EDTA (0.05%, 0.02%) in PBS (Biochrom) was used in order to harvest cells. Cells were counted with a Neubauer hemocytometer (Paul Marienfeld, Lauda-Königshofen, Germany).
In the case of metal-complexed ligands, the crude reaction mixture was diluted analogously, without further purification. Cells were harvested 24±2 hours prior to the experiment and seeded in 24-well plates (1.5×10^5 cells in 1 mL/well). After removal of the culture medium, the cells were carefully washed with 500 μL of HBSS, supplemented with 1% bovine serum albumin (BSA, Biowest, Nuaillé, France) and left 15 min on ice for equilibration in 200 μL HBSS (1% BSA). Next, 25 μL per well of solutions, containing either HBSS (1% BSA, control) or the respective ligand in increasing concentration ([…] in HBSS) were added with subsequent addition of 25 μL of [^125I]-BA-KuE (2.0 nM) in HBSS (1% BSA). After incubation on ice for 60 min, the experiment was terminated by removal of the medium and consecutive rinsing with 200 μL of HBSS (1% BSA). The media of both steps were combined in one fraction and represent the amount of free radioligand. Afterwards, the cells were lysed with 250 μL of 1 M aqueous NaOH for at least 10 min. After a washing step (250 μL of 1 M NaOH), both fractions, representing the amount of bound ligand, were united. Quantification of all collected fractions was accomplished in a γ-counter. PSMA-affinity determinations were carried out at least three times per ligand.
Affinities were determined using LNCaP cells (150000 cells/well) and ([^125I]I-BA)KuE (c=0.2 nM) as the radioligand (1 h, 4° C., HBSS+1% BSA). Data are expressed as mean±SD (n=3).

T1 sequence (Q04609 whole entry): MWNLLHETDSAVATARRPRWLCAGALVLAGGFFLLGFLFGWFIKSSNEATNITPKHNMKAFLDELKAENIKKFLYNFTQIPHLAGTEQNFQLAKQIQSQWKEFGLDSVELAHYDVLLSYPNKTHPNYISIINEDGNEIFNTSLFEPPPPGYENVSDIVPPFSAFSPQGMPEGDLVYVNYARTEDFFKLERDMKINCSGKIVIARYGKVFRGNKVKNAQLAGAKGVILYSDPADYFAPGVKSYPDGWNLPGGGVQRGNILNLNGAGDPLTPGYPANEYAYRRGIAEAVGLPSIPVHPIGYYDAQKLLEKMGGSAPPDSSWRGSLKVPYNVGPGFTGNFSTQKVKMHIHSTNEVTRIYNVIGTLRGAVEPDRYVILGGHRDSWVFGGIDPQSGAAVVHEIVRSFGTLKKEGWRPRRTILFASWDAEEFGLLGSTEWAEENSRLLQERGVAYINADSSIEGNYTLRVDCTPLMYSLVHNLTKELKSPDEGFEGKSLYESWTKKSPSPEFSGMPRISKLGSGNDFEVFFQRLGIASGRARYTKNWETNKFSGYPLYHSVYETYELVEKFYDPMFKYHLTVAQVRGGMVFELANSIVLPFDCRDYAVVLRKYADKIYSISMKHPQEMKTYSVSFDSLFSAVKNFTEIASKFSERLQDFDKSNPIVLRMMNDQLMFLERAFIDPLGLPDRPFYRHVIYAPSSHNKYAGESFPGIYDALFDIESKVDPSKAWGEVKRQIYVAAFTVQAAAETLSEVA

Row | Compound | biodistribution: tumor [1] | biodistribution: blood [1] | biodistribution: bone [1] | biodistribution: heart [1] | biodistribution: intestine [1] | biodistribution: kidneys [1] | biodistribution: liver [1] | biodistribution: lung [1] | biodistribution: muscle [1] | biodistribution: pancreas [1] | biodistribution: spleen [1] | biodistribution: stomach [1] | IC50 (PSMA) | biodistribution: adrenals [1] | biodistribution: parotis [1] | biodistribution: submandibularis [1]
1 | CC(C)(C)[Si](O)(c1ccc(C(=O)NC[C@@H](NC(=O)CC[C@@H](C(=O)O)N2CCN(CC(=O)O)CCN(CC(=O)O)CCN(CC(=O)O)CC2)C(=O)N[C@H](CCCCNC(=O)CCC(=O)NCCC[C@@H](NC(=O)CC[C@H](NC(=O)N[C@@H](CCC(=O)O)C(=O)O)C(=O)O)C(=O)O)C(=O)O)cc1)C(C)(C)C [7.3-SiOH] | 7.3 ± 0.8 % ID/g | 0.002 ± 0.001 % ID/g | 0.01 ± 0.01 % ID/g | 0.01 ± 0.01 % ID/g | 0.45 ± 0.39 % ID/g | 3.7 ± 1.9 % ID/g | 0.08 ± 0.03 % ID/g | 0.03 ± 0.01 % ID/g | 0.006 ± 0.005 % ID/g | 0.01 ± 0.01 % ID/g | 0.21 ± 0.11 % ID/g | 0.24 ± 0.36 % ID/g | 5.9 ± 1.4 nM | – | – | –
2 | CC(C)(C)[Si](O)(c1ccc(C(=O)NC[C@@H](NC(=O)CCCCCNC(=O)CCCNC(=O)CC[C@@H](NC(=O)CCC(NC(=O)N[C@@H](CCC(=O)O)C(=O)O)C(=O)O)C(=O)O)C(=O)NCC(=O)N[C@@H](CCCCNC(=O)CC[C@@H](C(=O)O)N2CCN(CC(=O)O)CCN(CC(=O)O)CCN(CC(=O)O)CC2)C(=O)O)cc1)C(C)(C)C (some centres unmarked) [E104-SiOH] | – | – | – | – | – | – | – | – | – | – | – | – | 9 ± 2.2 nM | – | – | –
3 | CC(C)(C)[Si](F)(c1ccc(C(=O)NC[C@@H](NC(=O)CN2CCN(CC(=O)O)CCN(CC(=O)O)CCN(CC(=O)O)CC2)C(=O)N[C@H](CCCCNC(=O)CCC(=O)NCCC[C@@H](NC(=O)CC[C@H](NC(=O)N[C@@H](CCC(=O)O)C(=O)O)C(=O)O)C(=O)O)C(=O)O)cc1)C(C)(C)C [rhPSMA-10, reference compound] | 10.2 ± 2.8 % ID/g | 0.004 ± 0.001 % ID/g | 0.02 ± 0.01 % ID/g | 0.03 ± 0.01 % ID/g | 0.11 ± 0.06 % ID/g | 4.1 ± 2.3 % ID/g | 0.28 ± 0.13 % ID/g | 0.05 ± 0.01 % ID/g | 0.010 ± 0.003 % ID/g | 0.02 ± 0.01 % ID/g | 0.22 ± 0.11 % ID/g | 0.04 ± 0.01 % ID/g | 2.8 ± 0.7 nM | 0.09 ± 0.06 % ID/g | – | –
4 | CC(C)(C)[Si](F)(c1ccc(C(=O)NC[C@@H](NC(=O)CC[C@@H](C(=O)O)N2CCN(CC(=O)O)CCN(CC(=O)O)CCN(CC(=O)O)CC2)C(=O)N[C@H](CCCCNC(=O)CCC(=O)NCCC[C@@H](NC(=O)CC[C@H](NC(=O)N[C@@H](CCC(=O)O)C(=O)O)C(=O)O)C(=O)O)C(=O)O)cc1)C(C)(C)C [rhPSMA-7.3, reference compound] | 7.6 ± 0.5 % ID/g | 0.004 ± 0.002 % ID/g | 0.02 ± 0.01 % ID/g | 0.03 ± 0.01 % ID/g | 0.12 ± 0.03 % ID/g | 13.2 ± 6.7 % ID/g | 0.22 ± 0.03 % ID/g | 0.06 ± 0.02 % ID/g | 0.012 ± 0.004 % ID/g | 0.02 ± 0.01 % ID/g | 0.51 ± 0.22 % ID/g | 0.05 ± 0.01 % ID/g | 8 ± 1.6 nM | – | 0.22 ± 0.16 % ID/g | 0.05 ± 0.02 % ID/g
5 | CC(C)(C)[Si](O)(c1ccc(C(=O)NC[C@@H](NC(=O)CC[C@@H](C(=O)O)N2CCN(CC(=O)O)CCN(CC(=O)O)CCN(CC(=O)O)CC2)C(=O)NCC(=O)N[C@@H](CCCCNC(=O)CCC(=O)NCCC[C@@H](NC(=O)CC[C@H](NC(=O)N[C@@H](CCC(=O)O)C(=O)O)C(=O)O)C(=O)O)C(=O)O)cc1)C(C)(C)C [E102-SiOH] | 4.4 ± 0.6 % ID/g | 0.002 ± 0.001 % ID/g | 0.03 ± 0.01 % ID/g | 0.02 ± 0.02 % ID/g | 0.43 ± 0.31 % ID/g | 3.3 ± 2.9 % ID/g | 0.05 ± 0.02 % ID/g | 0.04 ± 0.02 % ID/g | 0.001 ± 0.001 % ID/g | 0.01 ± 0.01 % ID/g | 0.13 ± 0.10 % ID/g | 0.08 ± 0.07 % ID/g | 8.4 ± 2.4 nM | 0.05 ± 0.03 % ID/g | 0.02 ± 0.01 % ID/g | 0.01 ± 0.01 % ID/g
6 | CC(C)(C)[Si](O)(c1ccc(C[N+](C)(C)CC(=O)NCCC[C@@H](NC(=O)CC[C@@H](C(=O)O)N2CCN(CC(=O)O)CCN(CC(=O)O)CCN(CC(=O)O)CC2)C(=O)NCCCCCC(=O)NCCC[C@@H](NC(=O)CC[C@H](NC(=O)N[C@@H](CCC(=O)O)C(=O)O)C(=O)O)C(=O)O)cc1)C(C)(C)C [P110-SiOH] | – | – | – | – | – | – | – | – | – | – | – | – | 42.2 ± 6.2 nM | – | – | –
7 | O=C(O)CC[C@H](NC(=O)N[C@@H](CCCCNC(=O)[C@H](Cc1ccc2ccccc2c1)NC(=O)[C@H]1CC[C@H](CNC(=O)CN2CCN(CC(=O)O)CCN(CC(=O)O)CCN(CC(=O)O)CC2)CC1)C(=O)O)C(=O)O [PSMA-617, reference compound] | 7.5 ± 0.9 % ID/g | 0.006 ± 0.01 % ID/g | 0.03 ± 0.01 % ID/g | 0.01 ± 0.01 % ID/g | 0.12 ± 0.08 % ID/g | 1.4 ± 0.4 % ID/g | 0.12 ± 0.06 % ID/g | 0.04 ± 0.01 % ID/g | 0.01 ± 0.01 % ID/g | 0.01 ± 0.01 % ID/g | 0.08 ± 0.01 % ID/g | 0.02 ± 0.01 % ID/g | 3.8 ± 1.7 nM | 0.13 ± 0.12 % ID/g | – | –
